Numbers after ± are expanded uncertainties.
Experiment: xn = mol fraction of the nth substance listed
Details: 100 kPa, Liquid; for mass density: Vibrating tube method; for viscosity: Falling or rolling sphere viscometry

CCCCCCCCCCC [undecane] + CCCO
Details | mass density, 323.15 K [kg/m3] | mass density, 328.15 K [kg/m3] | mass density, 333.15 K [kg/m3] | mass density, 338.15 K [kg/m3] | mass density, 343.15 K [kg/m3] | viscosity, 328.15 K [mPa·s] | viscosity, 333.15 K [mPa·s] | viscosity, 338.15 K [mPa·s] | viscosity, 343.15 K [mPa·s]
x1 = 0.1003 | 762.28 ± 1.5 | 758.02 ± 1.5 | 753.7 ± 1.5 | 749.3 ± 1.5 | 744.8 ± 1.5 | 0.885 ± 0.011 | 0.805 ± 0.01 | 0.734 ± 0.0092 | 0.672 ± 0.0084
x1 = 0.2009 | 750.73 ± 1.5 | 746.49 ± 1.5 | 742.18 ± 1.5 | 737.8 ± 1.5 | 733.33 ± 1.5 | 0.811 ± 0.01 | 0.741 ± 0.0094 | 0.68 ± 0.0086 | 0.626 ± 0.0079
x1 = 0.3004 | 742.26 ± 1.5 | 738.04 ± 1.5 | 733.76 ± 1.5 | 729.43 ± 1.5 | 725.01 ± 1.5 | 0.76 ± 0.0096 | 0.698 ± 0.0088 | 0.645 ± 0.0082 | 0.596 ± 0.0076
x1 = 0.3997 | 735.82 ± 1.5 | 731.64 ± 1.5 | 727.41 ± 1.5 | 723.12 ± 1.5 | 718.77 ± 1.4 | 0.723 ± 0.0092 | 0.668 ± 0.0085 | 0.619 ± 0.0079 | 0.576 ± 0.0073
x1 = 0.4998 | 730.81 ± 1.5 | 726.68 ± 1.5 | 722.5 ± 1.5 | 718.27 ± 1.4 | 713.98 ± 1.4 | 0.698 ± 0.0089 | 0.648 ± 0.0083 | 0.604 ± 0.0077 | 0.563 ± 0.0072
x1 = 0.6005 | 726.72 ± 1.5 | 722.64 ± 1.5 | 718.52 ± 1.4 | 714.36 ± 1.4 | – | 0.681 ± 0.0088 | 0.634 ± 0.0082 | 0.593 ± 0.0077 | 0.555 ± 0.0072
x1 = 0.6974 | 723.59 ± 1.5 | 719.57 ± 1.5 | 715.51 ± 1.4 | 711.41 ± 1.4 | – | 0.669 ± 0.0087 | 0.625 ± 0.0081 | 0.586 ± 0.0076 | 0.551 ± 0.0072
x1 = 0.8 | 721.01 ± 1.5 | 717.05 ± 1.4 | 713.06 ± 1.4 | 709.04 ± 1.4 | – | 0.665 ± 0.0087 | 0.623 ± 0.0082 | 0.586 ± 0.0077 | 0.552 ± 0.0072
x1 = 0.8963 | 719.09 ± 1.5 | 715.21 ± 1.4 | 711.3 ± 1.4 | 707.37 ± 1.4 | – | 0.669 ± 0.0088 | 0.628 ± 0.0083 | 0.592 ± 0.0078 | 0.558 ± 0.0074
x1 = 1 | 718.11 ± 1.5 | 714.39 ± 1.4 | 710.68 ± 1.4 | 706.95 ± 1.4 | – | 0.692 ± 0.0092 | 0.651 ± 0.0087 | 0.615 ± 0.0082 | 0.58 ± 0.0077

Source: the NIST ThermoML archive (doi:10.1021/acs.jced.6b00121)
